Measured values reported in patent US5563130A, “Methods for inhibiting angiogenesis, proliferation of endothelial or tumor cells and tumor growth” (American Cyanamid Company, priority 1994, dated 1996).
≈ marks a conversion by molar mass, not a printed value.

Assays:
MIP = assay: Antiproliferative activity in human colon tumor cell line MIP; type: cell-based; details: Homo sapiens, PROTOCOL 1 and PROTOCOL 2
Description: PROTOCOL 1, 2, and 3 are described in greater detail hereinbelow. In general, according to PROTOCOLS 1 and 2, the target ABAE and/or Human Tumor cells are exposed to the compound of Formula I for 48 hours. PROTOCOL 3 exposes ABAE cell to the compound for 4 days. A detailed description of the protocol is as follows:
Antiproliferative Activity in Human Tumor and Adult Bovine Aortic Endothelial (ABAE) Cell Lines
The antiproliferative activity of the compounds of Formula I of the present invention is evaluated in a panel comprised of human tumor cell lines and an adult bovine aortic endothelial cell line (ABAE). The human tumor cell lines are from:
2) Colon tumors: MIP, CaCo2, and SW620.
All cell lines are maintained in log phase in RPMI 1640 media, supplemented with 5% fetal calf serum, penicillin/streptomycin and 2 mM L-glutamine. Cultures are renewed after 20 passages with cells from a fresh stock of batch-frozen early passage cells. Cell lines are routinely checked for mycoplasma contamination (Genprobe). In a laminar flow hood, cells (1-5×10^4) are plated into 96-well microtiter plates in a volume of 0.1 ml/well with a bulk microtiter dispenser (Denley). […] At this concentration, dimethylsulfoxide has no effect on cell growth. Compounds are added using a Tomtec dispenser which simultaneously dispenses from one 96-well plate, containing the drug dilutions, to the plates containing the cells. After two days of continuous drug exposure, 50% cold trichloroacetic acid (TCA) is added to 10% final concentration to fix the cells, and after 60 minutes at 4° C., the TCA is aspirated and the plates are washed 5 times with deionized water using a microtiter plate washer. The number of cells on the plate are quantitated using a protein dye-binding assay (Monks et al., 1991). A 0.4% solution of the dye, sulforhodamine B, in glacial acetic acid is added to the plates, and the plates are washed 5 times with 1% glacial acetic acid using the automatic plate washed. The bound stain is solubilized with 0.1 ml of 10 mM Tris base. The optical densities are read from an automatic spectrophotometric plate reader (Dynatech) directly to a main frame computer (VAX 8600).
Positive controls, that include standard chemotherapeutic drugs (i.e., adriamycin, cisplatin, etc.), are included in every experiment.
Background optical density measurements (complete media-cells, and complete media+drug-cells) are automatically subtracted from the appropriate control and test wells. Mean values and standard errors are determined from duplicate wells. A measure is also made of the optical density at time when the drugs are added. The number of cells after treatment (P), as % of control, is calculated for every concentration of drug, as follows: [formula] wherein: T is optical density measurement for treated cells after 48 hours;
C is optical density measurement for untreated cells after 48 hours;
Co is optical density measurement for cells at the time of drug addition.
IC50 of growth inhibition is calculated from the sets of P values using the RS-1 data package (BBN Software).
The antiproliferative activity of the compounds of Formula I is evaluated in a panel comprised of human tumor cell lines and an adult bovine aortic endothelial cell line (ABAE) as listed in PROTOCOL 1. This assay is a modification of PROTOCOL 1. The modifications include:
1) each concentration for each compound is tested in a single well;
2) compounds are tested at 20, 4, 0.8, 0.16 microgram/ml and additionally in some experiments at 100 and 0.32 microgram/ml;
3) samples are pipetted into a 96-well plate for each of the cell lines by a Beckman Biomek 1000 SL robot;
4) after fixing with TCA each well is washed with 0.35 ml distilled water twice, not five times;
5) after staining with sulforhodamine B each well is washed 3 times, not five times; […]

tumor = details: in conjunction with cancer chemotherapy or radiation therapy; Teicher et al; cited from earlier work

CN(C)c1ccc(O)c2c1C[C@H]1C[C@H]3[C@H](N(C)C)C(O)=C(C(N)=O)C(=O)[C@@]3(O)C(O)=C1C2=O [Minocycline, reference compound]
IC50 (MIP): 6.1 µg/mL (≈ 13.3 µM) | number of metastases (tumor): reduced | tumor growth (tumor): decreased
